Legend:
human JAK1 = human JAK1 (Homo sapiens, UniProt P23458); assay: In vitro JAK kinase assay (Example A), JAK1; assay type: biochemical; conditions: 1 mM ATP
Description: In some embodiments, the JAK1 pathway inhibitor is a compound of Table 2, or a pharmaceutically acceptable salt thereof.

human JAK2 = human JAK2 (Homo sapiens (Human), UniProt O60674); assay: In vitro JAK kinase assay (Example A), JAK2; assay type: biochemical; conditions: JAK2/JAK1 IC50 ratio, 1 mM ATP
Description: The compounds in Table 2 were tested in this assay and shown to have the IC50 values in Table 2.

[1] = tested on: patients with BOS after lung transplantation; conditions: cited from earlier work

Chain of human JAK2 (O60674 828-1132): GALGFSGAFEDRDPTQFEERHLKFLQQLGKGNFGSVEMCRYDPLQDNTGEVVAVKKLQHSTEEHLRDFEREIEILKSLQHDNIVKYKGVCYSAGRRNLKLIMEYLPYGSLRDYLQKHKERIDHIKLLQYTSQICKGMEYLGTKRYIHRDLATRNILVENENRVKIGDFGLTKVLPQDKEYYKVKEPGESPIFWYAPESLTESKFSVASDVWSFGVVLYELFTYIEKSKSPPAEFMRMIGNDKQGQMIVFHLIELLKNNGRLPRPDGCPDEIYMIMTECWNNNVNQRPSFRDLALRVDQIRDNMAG

Row | Structure (SMILES) | IC50 (human JAK1) | JAK2/JAK1 (human JAK2) | effect on lung function decline ([1]; overall cohort, 30 patients randomized vs placebo) | decline of FEV1 ([1]; post-hoc subanalysis of BOS grade 1 patients, absolute and predicted FEV1)
1 | CC(C)(O)c1cc(O[C@H]2CC[C@@H](N3CC(CC#N)(n4cc(-c5ncnc6[nH]ccc56)cn4)C3)CC2)nc(C(F)(F)F)c1 [Compound 20, {1-(cis-4-{[4-(1-hydroxy-1-methylethyl)-6-(trifluoromethyl)pyridin-2-yl]oxy}cyclohexyl)-3-[4-(7H-pyrrolo[2,3-d]pyrimidin-4-yl)-1H-pyrazol-1-yl]azetidin-3-yl}acetonitrile] | < 10 nM | >10 | – | –
2 | CCNCc1cc(O[C@H]2CC[C@@H](N3CC(CC#N)(n4cc(-c5ncnc6[nH]ccc56)cn4)C3)CC2)nc(C(F)(F)F)c1 [Compound 19, {1-(cis-4-{[4-[(ethylamino)methyl]-6-(trifluoromethyl)pyridin-2-yl]oxy}cyclohexyl)-3-[4-(7H-pyrrolo[2,3-d]pyrimidin-4-yl)-1H-pyrazol-1-yl]azetidin-3-yl}acetonitrile] | < 10 nM | >10 | – | –
3 | C[C@@H](CO)NCc1cc(OC2CCN([C@H]3C[C@](CC#N)(n4cc(-c5ncnc6[nH]ccc56)cn4)C3)CC2)nc(C(F)(F)F)c1 [Compound 23, {trans-3-(4-{[4-({[(1S)-2-hydroxy-1-methylethyl]amino}methyl)-6-(trifluoromethyl)pyridin-2-yl]oxy}piperidin-1-yl)-1-[4-(7H-pyrrolo[2,3-d]pyrimidin-4-yl)-1H-pyrazol-1-yl]cyclobutyl}acetonitrile] | < 10 nM | >10 | – | –
4 | C[C@@H](O)CNCc1cc(OC2CCN([C@H]3C[C@](CC#N)(n4cc(-c5ncnc6[nH]ccc56)cn4)C3)CC2)nc(C(F)(F)F)c1 [Compound 24, {trans-3-(4-{[4-({[(2R)-2-hydroxypropyl]amino}methyl)-6-(trifluoromethyl)pyridin-2-yl]oxy}piperidin-1-yl)-1-[4-(7H-pyrrolo[2,3-d]pyrimidin-4-yl)-1H-pyrazol-1-yl]cyclobutyl}acetonitrile] | < 10 nM | >10 | – | –
5 | N#CCC1(n2cc(-c3ncnc4[nH]ccc34)cn2)CN(C2CCN(C(=O)Nc3ccc(F)cc3C(F)(F)F)CC2)C1 [Compound 2, 4-{3-(Cyanomethyl)-3-[4-(7H-pyrrolo[2,3-d]pyrimidin-4-yl)-1H-pyrazol-1-yl]azetidin-1-yl}-N-[4-fluoro-2-(trifluoromethyl)phenyl] piperidine-1-carboxamide] | < 10 nM | >10 | – | –
6 | N#CC[C@]1(n2cc(-c3ncnc4[nH]ccc34)cn2)C[C@H](N2CCC(Oc3cc(CN4CC(O)C4)cc(C(F)(F)F)n3)CC2)C1 [Compound 11, {trans-3-(4-{[4-[(3-hydroxyazetidin-1-yl)methyl]-6-(trifluoromethyl)pyridin-2-yl]oxy}piperidin-1-yl)-1-[4-(7H-pyrrolo[2,3-d]pyrimidin-4-yl)-1H-pyrazol-1-yl]cyclobutyl}acetonitrile] | < 10 nM | >10 | – | –
7 | N#CCC(C1CCN(c2cccc(Cl)n2)C1)n1cc(-c2ncnc3[nH]ccc23)cn1 (single isomer, unassigned) [Compound 6, 3-[1-(6-chloropyridin-2-yl)pyrrolidin-3-yl]-3-[4-(7H-pyrrolo[2,3-d]pyrimidin-4-yl)-1H-pyrazol-1-yl]propanenitrile] | < 10 nM | >10 | – | –
8 | N#CC[C@]1(n2cc(-c3ncnc4[nH]ccc34)cn2)C[C@H](N2CCC(Oc3cc(CCO)cc(C(F)(F)F)n3)CC2)C1 [Compound 26, {trans-3-(4-{[4-(2-hydroxyethyl)-6-(trifluoromethyl)pyridin-2-yl]oxy}piperidin-1-yl)-1-[4-(7H-pyrrolo[2,3-d]pyrimidin-4-yl)-1H-pyrazol-1-yl]cyclobutyl}acetonitrile] | < 10 nM | >10 | – | –
9 | N#CC[C@]1(n2cc(-c3ncnc4[nH]ccc34)cn2)C[C@H](N2CCN(C(=O)c3ccnc(C(F)(F)F)n3)CC2)C1 [Compound 10, [trans-1-[4-(7H-pyrrolo[2,3-d]pyrimidin-4-yl)-1H-pyrazol-1-yl]-3-(4-{[2-(trifluoromethyl)pyrimidin-4-yl]carbonyl}piperazin-1-yl)cyclobutyl]acetonitrile] | < 10 nM | >10 | – | –
10 | N#CCC(CN1CCN(C(=O)c2ccc(C#N)cc2F)CC1)n1ccc(-c2ncnc3[nH]ccc23)c1 (centres unmarked) [Compound 9, 4-[(4-{3-cyano-2-[3-(7H-pyrrolo[2,3-d]pyrimidin-4-yl)-1H-pyrrol-1-yl]propyl}piperazin-1-yl)carbonyl]-3-fluorobenzonitrile] | < 10 nM | >10 | – | –
11 | N#CCC1(n2cc(-c3ncnc4[nH]ccc34)cn2)CN([C@H]2CC[C@@H](Oc3cc(CN4CC[C@@H](O)C4)cc(C(F)(F)F)n3)CC2)C1 [Compound 21, {1-(cis-4-{[4-{[(3R)-3-hydroxypyrrolidin-1-yl]methyl}-6-(trifluoromethyl)pyridin-2-yl]oxy}cyclohexyl)-3-[4-(7H-pyrrolo[2,3-d]pyrimidin-4-yl)-1H-pyrazol-1-yl]azetidin-3-yl}acetonitrile] | < 10 nM | >10 | – | –
12 | N#CCC1(n2cc(-c3ncnc4[nH]ccc34)cn2)CN([C@H]2CC[C@@H](Oc3cc(CCO)nc(C(F)(F)F)n3)CC2)C1 [Compound 18, {1-(cis-4-{[6-(2-hydroxyethyl)-2-(trifluoromethyl)pyrimidin-4-yl]oxy}cyclohexyl)-3-[4-(7H-pyrrolo[2,3-d]pyrimidin-4-yl)-1H-pyrazol-1-yl]azetidin-3-yl}acetonitrile] | < 10 nM | >10 | – | –
13 | C[C@H](O)CNCc1cc(OC2CCN([C@H]3C[C@](CC#N)(n4cc(-c5ncnc6[nH]ccc56)cn4)C3)CC2)nc(C(F)(F)F)c1 [Compound 25, {trans-3-(4-{[4-({[(2S)-2-hydroxypropyl]amino}methyl)-6-(trifluoromethyl)pyridin-2-yl]oxy}piperidin-1-yl)-1-[4-(7H-pyrrolo[2,3-d]pyrimidin-4-yl)-1H-pyrazol-1-yl]cyclobutyl}acetonitrile] | < 10 nM | >10 | – | –
14 | N#CCC1(n2cc(-c3ncnc4[nH]ccc34)cn2)CN([C@H]2CC[C@@H](Oc3cc(CN4CC[C@H](O)C4)cc(C(F)(F)F)n3)CC2)C1 [Compound 22, {1-(cis-4-{[4-{[(3S)-3-hydroxypyrrolidin-1-yl]methyl}-6-(trifluoromethyl)pyridin-2-yl]oxy}cyclohexyl)-3-[4-(7H-pyrrolo[2,3-d]pyrimidin-4-yl)-1H-pyrazol-1-yl]azetidin-3-yl}acetonitrile] | < 10 nM | >10 | – | –
15 | N#CC[C@]1(n2cc(-c3ncnc4[nH]ccc34)cn2)C[C@H](N2CCC(Oc3cc(CN4CCC[C@@H]4CO)cc(C(F)(F)F)n3)CC2)C1 [Compound 13, {trans-3-(4-{[4-{[(2R)-2-(hydroxymethyl)pyrrolidin-1-yl]methyl}-6-(trifluoromethyl)pyridin-2-yl]oxy}piperidin-1-yl)-1-[4-(7H-pyrrolo[2,3-d]pyrimidin-4-yl)-1H-pyrazol-1-yl]cyclobutyl}acetonitrile] | < 10 nM | >10 | – | –
16 | C[C@H](NC(=O)c1cc(F)c(N2CC(CC#N)(n3cc(-c4ncnc5[nH]ccc45)cn3)C2)cc1F)C(F)(F)F [Compound 16, 4-{3-(cyanomethyl)-3-[4-(7H-pyrrolo[2,3-d]pyrimidin-4-yl)-1H-pyrazol-1-yl]azetidin-1-yl}-2,5-difluoro-N-[(1S)-2,2,2-trifluoro-1-methylethyl]benzamide] | < 10 nM | >10 | – | –
17 | N#CCC(C1CCN(c2nc3cccnc3o2)C1)n1cc(-c2ncnc3[nH]ccc23)cn1 (centres unmarked) [Compound 7, 3-(1-[1,3]oxazolo[5,4-b]pyridin-2-ylpyrrolidin-3-yl)-3-[4-(7H-pyrrolo[2,3-d]pyrimidin-4-yl)-1H-pyrazol-1-yl]propanenitrile] | < 10 nM | >10 | – | –
18 | C[C@@H](O)c1nc2cnc3ccsc3c2n1[C@H]1CC[C@H](CC#N)OC1 [Compound 5, ((2R,5S)-5-{2-[(1R)-1-hydroxyethyl]-1H-imidazo[4,5-d]thieno[3,2-b]pyridin-1-yl}tetrahydro-2H-pyran-2-yl)acetonitrile] | < 100 nM | >10 | – | –
19 | N#CCC(CN1CCN(C(=O)c2ccc(C#N)cc2F)CC1)n1cc(-c2ncnc3[nH]ccc23)cn1 (centres unmarked) [Compound 8, 4-[(4-{3-cyano-2-[4-(7H-pyrrolo[2,3-d]pyrimidin-4-yl)-1H-pyrazol-1-yl]propyl}piperazin-1-yl)carbonyl]-3-fluorobenzonitrile] | < 10 nM | >10 | – | –
20 | CC(C)(O)c1ccccc1CC[C@@H](SCC1(CC(=O)O)CC1)c1cccc(/C=C/c2ccc3ccc(Cl)cc3n2)c1 [Montelukast] | – | – | no effect on lung function decline | attenuated further decline of FEV1
21 | N#CC[C@]1(n2cc(-c3ncnc4[nH]ccc34)cn2)C[C@H](N2CCC(Oc3cc(CN4CCC[C@H]4CO)cc(C(F)(F)F)n3)CC2)C1 [Compound 12, {trans-3-(4-{[4-{[(2S)-2-(hydroxymethyl)pyrrolidin-1-yl]methyl}-6-(trifluoromethyl)pyridin-2-yl]oxy}piperidin-1-yl)-1-[4-(7H-pyrrolo[2,3-d]pyrimidin-4-yl)-1H-pyrazol-1-yl]cyclobutyl}acetonitrile] | < 10 nM | >10 | – | –
22 | N#CCC1(n2cc(-c3ncnc4[nH]ccc34)cn2)CN(C2CCN(C(=O)c3ccnc(C(F)(F)F)n3)CC2)C1 [Compound 3, [3-[4-(7H-pyrrolo[2,3-d]pyrimidin-4-yl)-1H-pyrazol-1-yl]-1-(1-{[2-(trifluoromethyl)pyrimidin-4-yl]carbonyl}piperidin-4-yl)azetidin-3-yl]acetonitrile] | < 10 nM | >10 | – | –

Reference: US11406640B2, “JAK1 pathway inhibitors for the treatment of chronic lung allograft dysfunction” (Incyte Corporation, priority 2019, dated 2022)
